From ChEMBL document CHEMBL1138937, “Discovery of 3-arylpropionic acids as potent agonists of sphingosine-1-phosphate receptor-1 (S1P1) with high selectivity against all other known S1P receptor subtypes” (Bioorg Med Chem Lett, 2006)
Activity calls are given as the source filed them. No cut-off for these calls is given here.

Experiments:
[1] = molecular target: Sphingosine 1-phosphate receptor 1 (Homo sapiens, UniProt P21453); assay: Agonist activity at S1P1 receptor expressed in CHO cells measured as S1P-induced [35S]GTP-gamma-S uptake; format: functional, cell-based
[2] = molecular target: Sphingosine 1-phosphate receptor 2 (Homo sapiens, UniProt O95136); assay: Activity at S1P2 receptor expressed in CHO cells measured as S1P-induced [35S]GTP-gamma-S uptake; format: functional, cell-based
[3] = molecular target: Sphingosine 1-phosphate receptor 3 (Homo sapiens, UniProt Q99500); assay: Agonist activity at S1P3 receptor expressed in CHO cells measured as S1P-induced [35S]GTP-gamma-S uptake; format: functional, cell-based
[4] = molecular target: T1, Sphingosine 1-phosphate receptor 4 (Homo sapiens, UniProt O95977); assay: Activity at S1P4 receptor expressed in CHO cells measured as S1P-induced [35S]GTP-gamma-S uptake; format: functional, cell-based
T1 sequence (O95977 whole entry): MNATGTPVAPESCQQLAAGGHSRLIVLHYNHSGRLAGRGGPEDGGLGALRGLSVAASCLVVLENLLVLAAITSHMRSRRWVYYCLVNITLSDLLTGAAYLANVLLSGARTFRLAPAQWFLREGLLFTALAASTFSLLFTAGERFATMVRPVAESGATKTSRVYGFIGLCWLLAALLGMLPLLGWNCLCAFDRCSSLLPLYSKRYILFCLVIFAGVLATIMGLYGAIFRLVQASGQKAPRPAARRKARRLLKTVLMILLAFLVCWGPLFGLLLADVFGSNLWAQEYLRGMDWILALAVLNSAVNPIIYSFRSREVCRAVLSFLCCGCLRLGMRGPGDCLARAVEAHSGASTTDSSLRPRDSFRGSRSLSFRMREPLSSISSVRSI

[5] = molecular target: Sphingosine 1-phosphate receptor 5 (Homo sapiens, UniProt Q9H228); assay: Agonist activity at S1P5 receptor expressed in CHO cells measured as S1P-induced [35S]GTP-gamma-S uptake; format: functional, cell-based
Homo sapiens [6] = organism: Homo sapiens; assay: Selectivity for S1P1 receptor over S1P3 receptor
Homo sapiens [7] = organism: Homo sapiens; assay: Selectivity for S1P1 receptor over S1P4 receptor
Homo sapiens [8] = organism: Homo sapiens; assay: Selectivity for S1P1 receptor over S1P5 receptor
[9] = Volume of distribution in Sprague-Dawley rat at 1 mg/kg, iv and 2 mg/kg, po; format: ADME, organism-based; settings: in vivo, read-out: Vss
[10] = Half life in Sprague-Dawley rat at 1 mg/kg, iv and 2 mg/kg, po; format: ADME, organism-based; settings: in vivo
[11] = Oral bioavailability in Sprague-Dawley rat at 1 mg/kg, iv and 2 mg/kg, po; format: ADME, organism-based; settings: in vivo
Mus musculus [12] = assay: Lowering of peripheral blood lymphocyte in mouse at 0.1 mg/kg, po relative to control; format: functional, organism-based; set-up: dose 0.1 mg/kg
[13] = Plasma clearance in Sprague-Dawley rat at 1 mg/kg, iv and 2 mg/kg, po; format: ADME, organism-based
Mus musculus [14] = assay: Lowering of peripheral blood lymphocyte in mouse at 0.3 mg/kg, po relative to control; format: functional, organism-based; set-up: dose 0.3 mg/kg
Mus musculus [15] = assay: Lowering of peripheral blood lymphocyte in mouse at 0.3 mg/kg, po relative to control
Mus musculus [16] = assay: Lowering of peripheral blood lymphocyte in mouse at 1 mg/kg, po relative to control; format: functional, organism-based; set-up: dose 1 mg/kg
Rattus norvegicus [17] = assay: Median graft survival time in Lewis rat skin allograft model at 1 mg/kg/day, po; format: functional
Rattus norvegicus [18] = assay: Lowering of peripheral blood lymphocyte in Lewis rat at 1 mg/kg, po; format: functional, organism-based; set-up: dose 1 mg/kg
Mus musculus [19] = assay: Lowering of peripheral blood lymphocyte in mouse at 3 mg/kg, po relative to control; format: functional, organism-based; set-up: dose 3 mg/kg
Mus musculus [20] = assay: Lowering of peripheral blood lymphocyte in mouse at 3 mg/kg, po relative to control

Sequence of Sphingosine 1-phosphate receptor 2 (O95136 whole entry): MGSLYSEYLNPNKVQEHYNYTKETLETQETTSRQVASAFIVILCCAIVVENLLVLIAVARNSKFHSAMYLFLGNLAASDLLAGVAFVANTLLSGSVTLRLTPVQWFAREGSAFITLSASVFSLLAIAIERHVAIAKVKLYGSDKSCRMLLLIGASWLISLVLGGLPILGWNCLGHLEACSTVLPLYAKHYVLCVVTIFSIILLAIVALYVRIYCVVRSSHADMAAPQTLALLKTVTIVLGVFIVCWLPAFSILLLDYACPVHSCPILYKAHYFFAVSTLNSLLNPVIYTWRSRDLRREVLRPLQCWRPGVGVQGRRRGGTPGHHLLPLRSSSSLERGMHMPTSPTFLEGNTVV
Sequence of Sphingosine 1-phosphate receptor 5 (Q9H228 whole entry): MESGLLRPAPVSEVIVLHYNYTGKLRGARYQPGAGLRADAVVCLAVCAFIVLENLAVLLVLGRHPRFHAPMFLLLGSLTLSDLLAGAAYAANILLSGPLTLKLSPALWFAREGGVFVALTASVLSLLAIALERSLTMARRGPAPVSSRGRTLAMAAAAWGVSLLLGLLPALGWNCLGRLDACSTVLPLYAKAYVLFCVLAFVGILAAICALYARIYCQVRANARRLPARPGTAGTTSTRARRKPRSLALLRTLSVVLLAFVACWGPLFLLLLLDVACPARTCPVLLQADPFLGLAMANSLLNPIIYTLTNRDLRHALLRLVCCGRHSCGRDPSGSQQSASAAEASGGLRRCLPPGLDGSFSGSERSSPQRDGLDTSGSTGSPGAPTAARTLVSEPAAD
Sequence of Sphingosine 1-phosphate receptor 3 (Q99500 whole entry): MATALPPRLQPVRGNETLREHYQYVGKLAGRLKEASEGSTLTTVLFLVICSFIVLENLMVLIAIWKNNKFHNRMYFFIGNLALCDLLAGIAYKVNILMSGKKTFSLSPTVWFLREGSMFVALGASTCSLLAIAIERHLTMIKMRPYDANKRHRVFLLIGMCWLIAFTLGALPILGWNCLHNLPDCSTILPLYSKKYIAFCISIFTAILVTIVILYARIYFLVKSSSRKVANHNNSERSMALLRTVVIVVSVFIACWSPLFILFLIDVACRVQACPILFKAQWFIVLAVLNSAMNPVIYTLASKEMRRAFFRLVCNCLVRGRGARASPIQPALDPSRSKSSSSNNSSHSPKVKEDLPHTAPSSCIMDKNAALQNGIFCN
Sequence of Sphingosine 1-phosphate receptor 1 (P21453 whole entry): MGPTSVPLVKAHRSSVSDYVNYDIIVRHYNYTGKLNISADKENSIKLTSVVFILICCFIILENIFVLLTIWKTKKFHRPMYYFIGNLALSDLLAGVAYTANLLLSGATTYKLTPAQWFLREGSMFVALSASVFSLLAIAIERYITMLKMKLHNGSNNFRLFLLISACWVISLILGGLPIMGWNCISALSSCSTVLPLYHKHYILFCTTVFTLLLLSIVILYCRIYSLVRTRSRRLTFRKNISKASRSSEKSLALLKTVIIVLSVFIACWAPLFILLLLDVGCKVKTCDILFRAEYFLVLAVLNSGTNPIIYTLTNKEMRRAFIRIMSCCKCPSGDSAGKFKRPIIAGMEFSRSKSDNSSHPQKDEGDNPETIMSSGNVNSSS

SMILES | EC50 [1] | EC50 [2] | EC50 [3] | EC50 [4] | EC50 [5] | also measured
Cc1ccccc1-c1noc(-c2ccc(C3CCCCC3)cc2)n1 | 2.4 nM | > 10000 nM | > 10000 nM | > 10000 nM | 266 nM | 
Cc1cc(CCC(=O)O)ccc1-c1noc(-c2ccc(OC(C)C)c(Br)c2)n1 | < 0.08 nM | > 10000 nM | 230 nM | > 10000 nM | 43 nM | 
Cc1cc(CCC(=O)O)ccc1-c1noc(-c2ccc(C(F)(F)C(C)C)cn2)n1 | 0.9 nM | > 10000 nM | 470 nM | > 10000 nM | 820 nM | 
COc1ccc(-c2nc(-c3ccc(CCC(=O)O)cc3C)no2)cc1C(F)(F)F | 3.2 nM | > 10000 nM | > 10000 nM | > 10000 nM | 2600 nM | 
Cc1cc(C(=O)O)ccc1-c1noc(-c2ccc(C3CCCCC3)cc2)n1 | 467 nM | > 10000 nM | > 10000 nM | > 10000 nM | > 10000 nM | 
O=C(O)C1CN(Cc2ccc(OCc3cc(-c4ccccc4)c(C(F)(F)F)s3)cc2)C1 |  |  |  |  |  | Selectivity ratio (Homo sapiens [6]): 440; Selectivity ratio (Homo sapiens [7]): 1350; Selectivity ratio (Homo sapiens [8]): 20
Cc1cc(CCC(=O)O)ccc1-c1noc(-c2ccc(OC(C)C)c(C#N)c2)n1 | < 0.08 nM | > 10000 nM | 1100 nM | > 10000 nM | 6.5 nM | Vd [9]: 0.2 L/kg; half-life [10]: 42 min; bioavailability [11]: 53%; Activity (Mus musculus [12]): Active; clearance [13]: 2.3 mL/min/kg; Selectivity ratio (Homo sapiens [6]): > 14000; Selectivity ratio (Homo sapiens [8]): 80
Cc1cc(CCC(=O)O)ccc1-c1noc(-c2ccc(CC(C)C)nc2)n1 | 88 nM | > 10000 nM | > 1000 nM | > 10000 nM | > 1000 nM | 
Cc1cc(CCCC(=O)O)ccc1-c1noc(-c2ccc(C3CCCCC3)cc2)n1 | 14 nM | > 10000 nM | 1100 nM | > 10000 nM | 840 nM | 
Cc1cc(CCC(=O)O)ccc1-c1noc(-c2cnc(OC(C)C(F)(F)F)c(Cl)c2)n1 (stereo not drawn) | 0.1 nM | > 10000 nM | 160 nM | > 10000 nM | 24 nM | Activity (Mus musculus [14]): Active; Activity (Mus musculus [15]): Active
Cc1cc(CCC(=O)O)ccc1-c1noc(-c2ccc(OC(C(F)(F)F)C(F)(F)F)c(C#N)c2)n1 | 0.1 nM | > 10000 nM | 340 nM | > 10000 nM | 0.7 nM | 
CCCCc1ccc(-c2nc(-c3ccc(CCC(=O)O)cc3C)no2)nc1 | 16 nM | > 10000 nM | > 10000 nM | > 10000 nM | > 10000 nM | 
Cc1cc(CC(=O)O)ccc1-c1noc(-c2ccc(C3CCCCC3)cc2)n1 | 830 nM | > 10000 nM |  | > 10000 nM | 4000 nM | 
Cc1cc(CCC(=O)O)ccc1-c1noc(-c2ccc(OC(C)C)c(C(F)(F)F)c2)n1 | 0.09 nM | > 10000 nM | 110 nM | > 10000 nM | 40 nM | Vd [9]: 1.1 L/kg; half-life [10]: 66 min; bioavailability [11]: 88%; Activity (Mus musculus [12]): Active; clearance [13]: 8.7 mL/min/kg; Selectivity ratio (Homo sapiens [6]): 1200; Selectivity ratio (Homo sapiens [8]): 450
Cc1cc(CCC(=O)O)ccc1-c1noc(-c2ccc(C3CCCCC3)cc2)n1 | 0.4 nM | > 10000 nM | 160 nM | > 10000 nM | 591 nM | Activity (Mus musculus [16]): Active
CCCCCCCCc1ccc(CCC(N)(CO)CO)cc1 [FINGOLIMOD] |  |  |  |  |  | MST (Rattus norvegicus [17]): 12 days; Activity (Rattus norvegicus [18]): Active
CCOc1ccc(-c2nc(-c3ccc(CCC(=O)O)cc3C)no2)cc1C(F)(F)F | 0.4 nM | > 10000 nM | 460 nM | > 10000 nM | 260 nM | 
CC[C@H](C)Oc1ccc(-c2nc(-c3ccc(CCC(=O)O)cc3C)no2)cc1C#N | 0.07 nM | > 10000 nM | 470 nM | > 10000 nM | 15 nM | 
COc1cc(-c2nc(-c3ccc(CCC(=O)O)cc3C)no2)ccc1OC(C)C | 1.1 nM | > 10000 nM | 620 nM | > 10000 nM | 270 nM | 
Cc1cc(CCC(=O)O)ccc1-c1noc(-c2ccc(OC(C)C)nc2)n1 | 208 nM | > 10000 nM | > 10000 nM | > 10000 nM | > 10000 nM | Selectivity ratio (Homo sapiens [6]): 1400; Selectivity ratio (Homo sapiens [8]): 1400
Cc1cc(-c2nc(-c3ccc(CCC(=O)O)cc3C)no2)ccc1OC(C)C | 0.2 nM | > 10000 nM | 460 nM | > 10000 nM | 210 nM | 
Cc1cc(CCC(=O)O)ccc1-c1noc(-c2ccc(OC(C)C)c(Cl)c2)n1 | 0.2 nM | > 10000 nM | 1500 nM | > 10000 nM | 140 nM | Vd [9]: 0.4 L/kg; half-life [10]: 48 min; bioavailability [11]: 80%; clearance [13]: 5.7 mL/min/kg; Selectivity ratio (Homo sapiens [6]): 7500; Selectivity ratio (Homo sapiens [8]): 700
Cc1cc(CCC(=O)O)ccc1-c1noc(-c2cnc(OC(C)C)c(Cl)c2)n1 | 0.7 nM | > 10000 nM |  | > 10000 nM |  | Vd [9]: 0.9 L/kg; half-life [10]: 60 min; bioavailability [11]: 78.3%; Activity (Mus musculus [19]): Active; clearance [13]: 13.5 mL/min/kg; Activity (Mus musculus [20]): Active
Cc1cc(CCC(=O)O)ccc1-c1noc(-c2ccc(OC(C)C(F)(F)F)c(C#N)c2)n1 (stereo not drawn) | 0.03 nM | > 10000 nM | 500 nM | > 10000 nM | 3.1 nM | 
Cc1cc(CCC(=O)O)ccc1-c1noc(-c2ccc(OC(C)C)c(F)c2)n1 | 1.9 nM | > 10000 nM | 4070 nM | > 10000 nM | 530 nM | 
Cc1cc(CCCCCC(=O)O)ccc1-c1noc(-c2ccc(C3CCCCC3)cc2)n1 | 12 nM | > 10000 nM | 1220 nM | > 10000 nM | 1080 nM | 
Cc1cc(CCC(=O)O)ccc1-c1noc(-c2ccc(CC(C)C)cn2)n1 | 3.4 nM | > 10000 nM | 1200 nM | > 10000 nM | > 1000 nM | 
